Entries after “also recorded” stand apart in the source; their conditions may differ.

Test [1] relates to H3K9me3(1–16) peptides. Description: bio-layer interferometry (BLI). It is filed as binding. The note with it: 20 mM Hepes KOH pH 7.2, 70 mM KCl; GST fusion; association 120 s, dissociation 120 s; WT 28.0 μM, R38/9K 25.5 μM, R38/9A 28.3 μM and lower concentrations. How it is done:
Recombinant mouse full-length HP1 wildtype and mutant proteins were expressed in (as GST fusion proteins), and purified from, Escherichia coli as described. Proteins were concentrated using Amicon Ultra centrifugation filters with a 30 kDa cutoff (Millipore), washed into binding buffer (20 mM Hepes KOH pH 7.2, 70 mM KCl, 1 mM DTT, 0.1% Tween-20, 5% glycerol). Protein concentrations were determined by Bradford protein assay against a BSA standard, and purity was verified by SDS-PAGE followed by Coomassie-blue staining. Real-time binding assays of GST-HP1γ were performed using the BLItz® system (ForteBio) in binding buffer (+ 0.1% BSA). Biotinylated H3(1–16) peptides (NH2-[…](me3)STGGKAP-Biotin) were immobilised to Dip and Read High Precision Streptavidin (SAX) Biosensors (ForteBio), and kinetics for a range of protein concentrations were measured under advanced kinetics settings (1. initial baseline measuring buffer only: 30 s, 2. loading of peptides onto sensors: 120 s, 3. effective baseline measurement: 30 s, 4. association of GST-HP1γ proteins: 120 s, 5. dissociation of GST-HP1γ proteins: 120 s). The data were normalised to the effective baseline signal by subtracting the average baseline value (150–180 s) from each data point (150–420 s). […] Raw data are summarised in Additional file 3: Table S1.

Test [2] concerns mESCs. Description: pluripotency marker mRNA (RT-PCR) and morphology of mESCs. Type of test: cell-based, mouse. Conditions: mESCs stably expressing fusion protein; +/− LIF; n = 2. As to the method:
(§1) Parental E14 mouse embryonic stem cell (mESC) line was profiled by transcriptome analysis, qPCR and potency assays and was routinely tested for mycoplasma contamination and tested negative. Cells were cultured in DMEM (Gibco) supplemented with 15% standard FCS (Gibco), 0.1 mM non-essential amino acids (Gibco), 1% penicillin/streptomycin, 2 mM L-glutamine (Gibco), 1 mM sodium pyruvate (Gibco), 0.1 mM β-mercaptoethanol (Life Technologies) and 10^6 units/l mLIF (ESGRO, Millipore). E14 cells were stored in incubators at 37 °C in 7.5% CO2 (100% humidity) and maintained in 0.1% gelatin coated 10-cm culture dishes with 1:6 passaging every 2 days. Media was changed on a daily basis. E14 ESCs expressing mouse mEos3.2–HaloTag-HP1 fusion proteins were generated by transfecting appropriate pSB7 plasmids into E14 cells using Lipofectamine 2000 transfection reagent (Invitrogen), followed by selection in 600 µg/ml geneticin (Life Technologies). After 2 weeks of geneticin selection, cells were sorted using a Sony SH800S cell sorter for the expression of mEos3.2. […]
Cells were lysed using QIAzol® lysis reagent (Qiagen) and total RNA was isolated using RNeasy® Mini Kit with in column DNase treatment (Qiagen). […] Relative expression was calculated with the 2^−ΔΔCt method, normalising to the housekeeping gene β-actin. Data were analysed using GraphPad Prism 7 software. […]

Test [3] relates to mESCs. Description: HP1γ foci formation, fluorescence imaging of mEos3.2. It is filed as cell-based, mouse. The note with it: +/− LIF 72 h. How it is done:
as §1, with “Technologies).” for “Technologies). After 2 weeks of geneticin selection, cells were sorted using a Sony SH800S cell sorter for the expression of mEos3.2.”
An IX73 Olympus inverted microscope was used with circularly polarised laser beams aligned and focused at the back aperture of an Olympus 1.40 NA 100 × oil objective (Universal Plan Super Apochromat, 100 × , NA 1.40, UPLSAPO100XO/1.4). […] The fluorescence emission was collected through the same objective and then further filtered using a combination of long-pass and band-pass filters (BLP01-561R and FF01-587/35 for 561 nm excitation). […]

In the case of “HP1γR38/9A: HP1γ with alanine substitutions at amino acids 38 and 39 to mimic citrullination”, in test [1], the “BLI binding, in words” value is given as “begin to plateau at significantly lower amounts compared to the WT protein; also recorded: distinctly different kinetic behaviour compared to the WT protein”. Moreover, the “effect of exogenous expression on pluripotency marker mRNA and morphology” value in test [2] is recorded as “no discernible effect on mESC differentiation”. For the same substance, in test [3], the “foci formation, WT- versus R38/9A-expressing cells” value is on record as “no apparent difference”.

With “HP1γWT: full-length mouse HP1γ wild type, as GST or mEos3.2–HaloTag fusion protein”, in test [1], the “BLI binding, in words” value is on record as “binds exclusively to H3K9me3 peptides”. Further, in test [2], the “effect of exogenous expression on pluripotency marker mRNA and morphology” value is reported as “no discernible effect on mESC differentiation”. Further, the “foci formation, WT- versus R38/9A-expressing cells” value in test [3] was “no apparent difference”.

(Values after publication PMC6444592, “Citrullination of HP1γ chromodomain affects association with chromatin” (Epigenetics & Chromatin, 2019).)
